Laboratory results taken from patent US12421249B2, “Inhibitors of APOL1 and methods of using same” (Vertex Pharmaceuticals Incorporated, priority 2020, dated 2025).

Molecular target: T1, APOL1 (Homo sapiens, UniProt O14791)
T1 sequence (O14791 1-398 S342G/I384M): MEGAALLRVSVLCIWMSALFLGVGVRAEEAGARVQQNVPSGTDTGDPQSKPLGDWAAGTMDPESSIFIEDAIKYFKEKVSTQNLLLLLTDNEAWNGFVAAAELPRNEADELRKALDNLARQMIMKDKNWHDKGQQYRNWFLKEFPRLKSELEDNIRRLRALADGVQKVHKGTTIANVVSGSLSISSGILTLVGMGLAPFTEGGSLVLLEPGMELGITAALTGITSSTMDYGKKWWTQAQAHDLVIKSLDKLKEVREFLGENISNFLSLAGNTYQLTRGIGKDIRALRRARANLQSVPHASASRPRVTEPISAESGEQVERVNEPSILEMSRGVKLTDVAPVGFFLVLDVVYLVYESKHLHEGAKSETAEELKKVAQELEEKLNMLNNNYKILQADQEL
Experiment: Multi-Tox Assay (MultiTox-Fluor Multiplex Cytotoxicity Assay in tet-inducible APOL1 T-REx-HEK293 cells; Table 46 does not say which APOL1 variant G0/G1/G2)
Assay type: cell-based
Conditions: APOL1 variant not given; for IC50: IP50 = IC50 for cell proliferation

| SMILES | Multi-Tox Assay Max Activity (%) | IC50 [nM] |
| --- | --- | --- |
| C[C@H]1C[C@@]2(C[C@@H](c3cn(Cc4ccc(O)nc4)nn3)N1)OCC(F)(F)c1cc(Cl)sc12 [Compound 316] | 95.0 | 50 to 500 |
| C[C@H]1C[C@@]2(C[C@@H](c3cn(Cc4cnccn4)nn3)N1)OCC(F)(F)c1cc(Cl)sc12 [Compound 317] | 98.0 | 50 to 500 |
| Cc1ncc(Cn2cc([C@@H]3C[C@]4(C[C@H](C)N3)OCC(F)(F)c3cc(Cl)sc34)nn2)cn1 [Compound 318] | 99.0 | < 50 |
| COc1cccc(Cn2cc([C@@H]3C[C@]4(C[C@H](C)N3)OCC(F)(F)c3cc(Cl)sc34)nn2)c1 [Compound 319] | 95.0 | 50 to 500 |
| C[C@H]1C[C@@]2(C[C@@H](c3cn(Cc4cccc(O)c4)nn3)N1)OCC(F)(F)c1cc(Cl)sc12 [Compound 320] | 95.0 | 50 to 500 |
| C[C@H]1C[C@@]2(C[C@@H](c3cn(Cc4cccnn4)nn3)N1)OCC(F)(F)c1cc(Cl)sc12 [Compound 321] | 99.0 | < 50 |
| C[C@H]1C[C@@]2(C[C@@H](c3cn(CC(O)c4ccccc4)nn3)N1)OCC(F)(F)c1cc(Cl)sc12 (some centres unmarked) [Compound 322] | 97.0 | 50 to 500 |
| COCCn1cc([C@@H]2C[C@]3(C[C@H](C)N2)OCC(F)(F)c2cc(Cl)sc23)nn1 [Compound 323] | 100.0 | < 50 |
| C[C@H]1C[C@@]2(C[C@@H](c3cn(CC(F)F)nn3)N1)OCC(F)(F)c1cc(Cl)sc12 [Compound 324] | 96.0 | 50 to 500 |
| CCC(O)Cn1cc([C@@H]2C[C@]3(C[C@H](C)N2)OCC(F)(F)c2cc(Cl)sc23)nn1 (some centres unmarked) [Compound 325] | 98.0 | < 50 |
| Cc1c(Cn2cc([C@@H]3C[C@]4(C[C@H](C)N3)OCC(F)(F)c3cc(Cl)sc34)nn2)cnn1C [Compound 326] | 97.0 | 50 to 500 |
| CC(C)N1CC(Cn2cc([C@@H]3C[C@]4(C[C@H](C)N3)OCC(F)(F)c3cc(Cl)sc34)nn2)CC1=O (some centres unmarked) [Compound 327] | 98.0 | < 50 |
| C[C@H]1C[C@@]2(C[C@@H](c3cn(CCC(N)=O)nn3)N1)OCC(F)(F)c1cc(Cl)sc12 [Compound 328] | 100.0 | < 50 |
| C[C@H]1C[C@@]2(C[C@@H](c3cn(CC4(F)CCOCC4)nn3)N1)OCC(F)(F)c1cc(Cl)sc12 [Compound 329] | – | > 500 |
| CCn1cc(Cn2cc([C@@H]3C[C@]4(C[C@H](C)N3)OCC(F)(F)c3cc(Cl)sc34)nn2)cn1 [Compound 330] | 99.0 | < 50 |
| C[C@H]1C[C@@]2(C[C@@H](c3cn(Cc4cocn4)nn3)N1)OCC(F)(F)c1cc(Cl)sc12 [Compound 331] | 98.0 | < 50 |
| C[C@H]1C[C@@]2(C[C@@H](c3cn(Cc4ccccn4)nn3)N1)OCC(F)(F)c1cc(Cl)sc12 [Compound 332] | 96.0 | 50 to 500 |
| COc1cc(F)cc(Cn2cc([C@@H]3C[C@]4(C[C@H](C)N3)OCC(F)(F)c3cc(Cl)sc34)nn2)c1 [Compound 333] | 97.0 | 50 to 500 |
| Cc1ccc(Cn2cc([C@@H]3C[C@]4(C[C@H](C)N3)OCC(F)(F)c3cc(Cl)sc34)nn2)nc1 [Compound 334] | 96.0 | 50 to 500 |
| COc1ccc(Cn2cc([C@@H]3C[C@]4(C[C@H](C)N3)OCC(F)(F)c3cc(Cl)sc34)nn2)cc1 [Compound 335] | 96.0 | 50 to 500 |

| SMILES | Multi-Tox Assay Max Activity (%) | IC50 [nM] |
| --- | --- | --- |
| Cc1cc(Cn2cc([C@@H]3C[C@]4(C[C@H](C)N3)OCC(F)(F)c3cc(Cl)sc34)nn2)ccn1 [Compound 336] | 99.0 | < 50 |
| Cc1nc(Cn2cc([C@@H]3C[C@]4(C[C@H](C)N3)OCC(F)(F)c3cc(Cl)sc34)nn2)oc1C [Compound 337] | 99.0 | < 50 |
| Cc1nnc(Cn2cc([C@@H]3C[C@]4(C[C@H](C)N3)OCC(F)(F)c3cc(Cl)sc34)nn2)[nH]1 [Compound 339] | 97.0 | 50 to 500 |
| COCCOCCn1cc([C@@H]2C[C@]3(C[C@H](C)N2)OCC(F)(F)c2cc(Cl)sc23)nn1 [Compound 340] | 98.0 | 50 to 500 |
| Cc1nccn1CCCn1cc([C@@H]2C[C@]3(C[C@H](C)N2)OCC(F)(F)c2cc(Cl)sc23)nn1 [Compound 341] | 98.0 | 50 to 500 |
| COCC(O)Cn1cc([C@@H]2C[C@]3(C[C@H](C)N2)OCC(F)(F)c2cc(Cl)sc23)nn1 (some centres unmarked) [Compound 342] | 98.0 | 50 to 500 |
| C[C@H]1C[C@@]2(C[C@@H](c3cn(CC4CCCCO4)nn3)N1)OCC(F)(F)c1cc(Cl)sc12 (some centres unmarked) [Compound 343] | 97.0 | 50 to 500 |
| C[C@H]1C[C@@]2(C[C@@H](c3cn(CCCS(C)(=O)=O)nn3)N1)OCC(F)(F)c1cc(Cl)sc12 [Compound 344] | 99.0 | < 50 |
| CC(C)C(=O)NCCn1cc([C@@H]2C[C@]3(C[C@H](C)N2)OCC(F)(F)c2cc(Cl)sc23)nn1 [Compound 345] | 99.0 | < 50 |
| C[C@H]1C[C@@]2(C[C@@H](c3cn(Cc4nc5ncccc5[nH]4)nn3)N1)OCC(F)(F)c1cc(Cl)sc12 [Compound 346] | 99.0 | 50 to 500 |
| C[C@H]1C[C@@]2(C[C@@H](c3cn(Cc4ccccc4S(C)(=O)=O)nn3)N1)OCC(F)(F)c1cc(Cl)sc12 [Compound 347] | 96.0 | 50 to 500 |
| COc1ccc(C(O)Cn2cc([C@@H]3C[C@]4(C[C@H](C)N3)OCC(F)(F)c3cc(Cl)sc34)nn2)cc1 (some centres unmarked) [Compound 348] | 97.0 | 50 to 500 |
| C[C@H]1C[C@@]2(C[C@@H](c3cn(Cc4n[nH]c5ccccc45)nn3)N1)OCC(F)(F)c1cc(Cl)sc12 [Compound 349] | 91.0 | 50 to 500 |
| C[C@H]1C[C@@]2(C[C@@H](c3cn(Cc4ncnc5[nH]ccc45)nn3)N1)OCC(F)(F)c1cc(Cl)sc12 [Compound 350] | 99.0 | < 50 |
| Cc1cc(C)nc(CCn2cc([C@@H]3C[C@]4(C[C@H](C)N3)OCC(F)(F)c3cc(Cl)sc34)nn2)c1 [Compound 351] | 98.0 | < 50 |
| C[C@H]1C[C@@]2(C[C@@H](c3cn(Cc4ccc(C#N)nc4)nn3)N1)OCC(F)(F)c1cc(Cl)sc12 [Compound 352] | 99.0 | < 50 |
| Cc1noc(C)c1Cn1cc([C@@H]2C[C@]3(C[C@H](C)N2)OCC(F)(F)c2cc(Cl)sc23)nn1 [Compound 353] | 100.0 | < 50 |
| C[C@H]1C[C@@]2(C[C@@H](c3cn(CCOc4ccccc4F)nn3)N1)OCC(F)(F)c1cc(Cl)sc12 [Compound 354] | 99.0 | 50 to 500 |
| C[C@H]1C[C@@]2(C[C@@H](c3cn(Cc4ccc(S(C)(=O)=O)cc4)nn3)N1)OCC(F)(F)c1cc(Cl)sc12 [Compound 355] | 98.0 | 50 to 500 |
